# According to PMC11883000, “Structure-function relationship of ASH1L and histone H3K36 and H3K4 methylation” (Nature Communications, 2025):
# Read-outs that look alike come from different tables or passages of the source.
# Columns and labels:
# ASH1LBD = assay: NMR titration (1H,15N HSQC), ASH1LBD; assay type: binding, Human; conditions: unlabeled ASH1LSET titrated into 15N-labeled ASH1LBD
# Source text: (§1) Human ASH1L constructs ASH1LPHD (aa 2579-2629), ASH1LBD (aa 2430-2564) and ASH1LPHD-BAH (aa 2579- 2794 and 2579-2834), ASH1LBD-PHD (aa 2430-2629) were cloned into pDEST15 vector with a TEV or Precission cleavage site. ASH1LBD-PHD-BAH (aa 2436-2833), ASH1LSET-BD-PHD (aa 2074-2629) and ASH1LSET-BD-PHD-BAH (aa 2069-2834) were in pGEX6P-1 and pMOCR vectors. Mutants of Ash1LPHD and Ash1LBD were generated following Quikchange mutagenesis protocols. Each construct was expressed in BL21 or Rosetta2 (DE3) pLysS cells in LB or minimal media supplemented with ^15NH4Cl (and ZnCl2 for PHD finger-containing constructs). Cultures were induced with 0.5 mM IPTG and grown for 18 h at 16 °C. After harvesting, the GST-tagged proteins were purified using glutathione agarose (Thermo Scientific) in 20 mM Tris pH 7.5, 150-500 mM NaCl, 5 mM MgCl2 and 2 mM DTT. […]
# (§2) NMR experiments were performed at 298 K on Varian 600 MHz and 900 MHZ spectrometers equipped with a cryogenic probe. Chemical shift perturbation experiments were carried out using 0.1–0.2 mM uniformly ^15N-labeled wild type or mutant proteins in 25 mM Tris pH 7.5 buffer, supplemented with 150 mM NaCl, 5 mM DTT and 5-7% D2O. ^1H,^15N heteronuclear single quantum coherence (HSQC) or transverse relaxation optimized spectroscopy (TROSY) spectra were recorded in the absence and presence of increasing concentrations of ligands. […]
# ASH1LPHD [1] = target: T1, ASH1LPHD (Homo sapiens, UniProt Q9NR48); assay: NMR titration (1H,15N HSQC), WT ASH1LPHD; assay type: binding; conditions: unlabeled ASH1LSET titrated into 15N-labeled ASH1LPHD
# T1 construct: ASH1LPHD (aa 2579-2629); GST (N, cleaved yes); made in house; host or cells: E. coli BL21 or Rosetta2 (DE3) pLysS
# Source text: as §1, §2
# H3K4me3-NCP [2] = assay type: binding; conditions: EMSA; 0.025 µM nucleosome, increasing protein, pH 7.5, on ice 5 min
# ASH1LPHD D2595A = target: T2, ASH1LPHD D2595A (Homo sapiens, UniProt Q9NR48, D2595A); assay: Tryptophan fluorescence binding, ASH1LPHD D2595A; conditions: 25 °C, pH 7.5, mean ± S.D., three independent experiments
# T2 construct: ASH1LPHD (aa 2579-2629); GST (N, cleaved yes); made in house; host or cells: E. coli BL21 or Rosetta2 (DE3) pLysS
# Source text: as §1, with “°C.” for “°C. After harvesting, the GST-tagged proteins were purified using glutathione agarose (Thermo Scientific) in 20 mM Tris pH 7.5, 150-500 mM NaCl, 5 mM MgCl2 and 2 mM DTT.”
# (§3) Fluorescence spectra were collected at 25 °C on a Fluoromax-3 and Fluoromax-4 plus C spectrofluorometers (HORIBA). […] Emission spectra were recorded between 320 and 360 nm with a 0.5 nm step size and a 0.5 s integration time. The Kd values were determined using a nonlinear least-squares analysis and the equation:3 ΔI=ΔImax((L+P+Kd)−L+P+Kd^2−4[P][L])/2[P] where [L] is concentration of the peptide, [P] is concentration of the protein, ΔI is the observed change of signal intensity, and ΔImax is the difference in signal intensity of the free and bound states of the protein. The Kd values were averaged over three independent experiments with error calculated as the standard deviation between the runs.
# ASH1LPHD-BAH = target: T3, ASH1LPHD-BAH (Homo sapiens, UniProt Q9NR48); assay: Tryptophan fluorescence binding, ASH1LPHD-BAH; conditions: 25 °C, pH 7.5, mean ± S.D., three independent experiments
# T3 construct: ASH1LPHD-BAH (aa 2579- 2794 and 2579-2834); GST (N, cleaved yes); made in house; host or cells: E. coli BL21 or Rosetta2 (DE3) pLysS
# Source text: as §1, with “°C.” for “°C. After harvesting, the GST-tagged proteins were purified using glutathione agarose (Thermo Scientific) in 20 mM Tris pH 7.5, 150-500 mM NaCl, 5 mM MgCl2 and 2 mM DTT.”
# as §3
# ASH1LPHD Q2601K = target: T4, ASH1LPHD Q2601K (Homo sapiens, UniProt Q9NR48, Q2601K); assay: Tryptophan fluorescence binding, ASH1LPHD Q2601K; conditions: 25 °C, pH 7.5, mean ± S.D., three independent experiments
# T4 construct: ASH1LPHD (aa 2579-2629); GST (N, cleaved yes); made in house; host or cells: E. coli BL21 or Rosetta2 (DE3) pLysS
# Source text: as §1, with “°C.” for “°C. After harvesting, the GST-tagged proteins were purified using glutathione agarose (Thermo Scientific) in 20 mM Tris pH 7.5, 150-500 mM NaCl, 5 mM MgCl2 and 2 mM DTT.”
# as §3
# ASH1LPHD [3] = target: T1, ASH1LPHD; assay: Tryptophan fluorescence binding, WT ASH1LPHD
# Source text: Human ASH1L constructs ASH1LPHD (aa 2579-2629), ASH1LBD (aa 2430-2564) and ASH1LPHD-BAH (aa 2579- 2794 and 2579-2834), ASH1LBD-PHD (aa 2430-2629) were cloned into pDEST15 vector with a TEV or Precission cleavage site. ASH1LBD-PHD-BAH (aa 2436-2833), ASH1LSET-BD-PHD (aa 2074-2629) and ASH1LSET-BD-PHD-BAH (aa 2069-2834) were in pGEX6P-1 and pMOCR vectors. Mutants of Ash1LPHD and Ash1LBD were generated following Quikchange mutagenesis protocols. Each construct was expressed in BL21 or Rosetta2 (DE3) pLysS cells in LB or minimal media supplemented with ^15NH4Cl (and ZnCl2 for PHD finger-containing constructs). Cultures were induced with 0.5 mM IPTG and grown for 18 h at 16 °C. After harvesting, the GST-tagged proteins were purified using glutathione agarose (Thermo Scientific) in 20 mM Tris pH 7.5, 150-500 mM NaCl, 5 mM MgCl2 and 2 mM DTT. For experiments requiring GST-tagged constructs, the proteins were eluted in a buffer containing 20 mM Tris pH 7.5, 150-500 mM NaCl, 5 mM MgCl2, 50 mM reduced glutathione and 2 mM DTT. For crystallography and biochemical assays, the GST tag was cleaved overnight at 4 °C with TEV or PreScission protease, and proteins were further purified by size exclusion chromatography (SEC). Protein fractions were checked for purity by SDS-PAGE and concentrated in a concentrator (Millipore).
# as §3
# ASH1LPHD D2584A = target: T5, ASH1LPHD D2584A (Homo sapiens, UniProt Q9NR48, D2584A); assay: Tryptophan fluorescence binding, ASH1LPHD D2584A; conditions: 25 °C, pH 7.5, mean ± S.D., three independent experiments
# T5 construct: ASH1LPHD (aa 2579-2629); GST (N, cleaved yes); made in house; host or cells: E. coli BL21 or Rosetta2 (DE3) pLysS
# Source text: as §1, with “°C.” for “°C. After harvesting, the GST-tagged proteins were purified using glutathione agarose (Thermo Scientific) in 20 mM Tris pH 7.5, 150-500 mM NaCl, 5 mM MgCl2 and 2 mM DTT.”
# as §3
# H3K4me3-NCP [4] = assay: Liquid HMT assay of GST-ASH1LSET-BD-PHD on H3K4me3-nucleosomes; assay type: biochemical; conditions: D2595K mutant compared to WT ASH1LSET-BD-PHD on H3K4me3-NCP; presence or absence of MRG15; 3H-SAM, 60 min at 30 °C, pH 8
# Protocol: Fig. 6 Binding of ASH1LPHD to H3K4me3 inhibits enzymatic activity of ASH1L. a Overlay of ^1H,^15N HSQC spectra of ASH1LBD in the absence (black) or presence of the indicated molar ratios of ASH1LSET. b Overlay of ^1H,^15N HSQC spectra of ASH1LPHD in the absence (black) or presence (blue) of ASH1LSET. c Liquid histone methyltransferase (HMT) assays of GST-ASH1LSET-BD-PHD-BAH on recombinant nucleosomes carrying H3K4me3 or unmodified NCP. GST-ASH1LSET-BD-PHD-BAH was pre-incubated with substrate and MRG15 (or BSA) prior addition of ^3H S-adenosyl methionine. GST, control. […] Live cells were counted over a 6-day time course. […]
# Recombinant ASH1L (WT and mutant) constructs, tagged at the N-terminus with GST and at the C-terminus with 6XHis, were generated and purified using Sepharose beads and Ni-NTA beads. […] Methyltransferase activity of the proteins was measured with 0.5 μCi of ^3H labeled S-adenosyl methionine (18 Ci/mmol; PerkinElmer Life Sciences). […] The reactions were captured on P81 filter paper, the free ^3H-labeled SAM was washed away, and the paper was analyzed by Liquid Scintillation.
# [5] = WT, summary of tryptophan fluorescence and MST, di- and trimethylated peptides, read-out: binding affinity
compound,measurement,setting,value
ASH1LSET: isolated unlabeled ASH1LSET domain,interaction of ASH1LSET with ASH1LBD (CSPs),ASH1LBD,direct contact with ASH1LBD
same,interaction of ASH1LSET with ASH1LPHD (CSPs),ASH1LPHD [1],does not interact with ASH1LPHD
"ASH1LPHD: Human ASH1L PHD finger (aa 2579-2629) (HEKDDDVIRCICGLYKDEGLMIQCDKCMVWQHCDCMGVNSDVEHYLCEQCD; left off: GST, end not stated, cleaved)",binding to H3K4me3-NCP,H3K4me3-NCP [2],incapable
C[C@H](N)C(=O)N[C@@H](CCCNC(=N)N)C(=O)N[C@H](C(=O)N[C@@H](CCCC[N+](C)(C)C)C(=O)N[C@@H](CCC(N)=O)C(=O)N[C@H](C(=O)N[C@@H](C)C(=O)N[C@@H](CCCNC(=N)N)C(=O)N[C@@H](CCCCN)C(=O)N[C@@H](CO)C(=O)N[C@H](C(=O)NCC(=O)O)[C@@H](C)O)[C@@H](C)O)[C@@H](C)O [H3K4me3],Kd,ASH1LPHD D2595A,5 to 7 µM
same,Kd,ASH1LPHD-BAH,1000 ± 400 nM
same,Kd,ASH1LPHD Q2601K,1000 ± 300 nM
same,Kd,ASH1LPHD [3]; [5],1000 to 2000 nM
same,Kd,ASH1LPHD D2584A,5 to 7 µM
ASH1LSET-BD-PHD D2595K mutant: D2595K mutant of ASH1LSET-BD-PHD (aa 2074-2629),methyltransferase activity,H3K4me3-NCP [4],increase in the methyltransferase activity
C[C@H](N)C(=O)N[C@@H](CCCNC(=N)N)C(=O)N[C@H](C(=O)N[C@@H](CCCCN(C)C)C(=O)N[C@@H](CCC(N)=O)C(=O)N[C@H](C(=O)N[C@@H](C)C(=O)N[C@@H](CCCNC(=N)N)C(=O)N[C@@H](CCCCN)C(=O)N[C@@H](CO)C(=O)N[C@H](C(=O)NCC(=O)O)[C@@H](C)O)[C@@H](C)O)[C@@H](C)O [H3K4me2],Kd,ASH1LPHD [3]; [5],1000 to 2000 nM
same,Kd,"ASH1LPHD [3]; tryptophan fluorescence, H3 aa 1-12, excitation 295 nm, emission 320-360 nm, 25 °C, 0.5–2 μM protein, 20–25 mM Tris pH 7.5, 150 mM NaCl, 3 mM DTT, mean ± S.D., three independent experiments, read-out: Kd",1000 ± 400 nM
